Reference: US20060040894A1, “Compositions and methods using hyaluronic acid” (Angiotech International AG, priority 2004, published 2006)

Tested on: hyaluronidase
Experiment: Hyaluronic Acid Viscometry Assay (degradation of HA by hyaluronidase)
Format: biochemical
Text: The time for the sample to run through the viscometer was proportional to the viscosity of HA in the sample, which, in turn, was proportional to the molecular weight of the HA. As the enzyme (hyaluronidase) breaks down HA, the molecular weight of the polymer is reduced, the viscosity of the solution drops, and the solution runs through the viscometer more rapidly. Accordingly, shorter run times indicated lower molecular weights of HA (i.e., more breakdown of the HA by hyaluronidase), whereas longer times indicated higher molecular weights of HA (i.e., less breakdown of the HA by hyaluronidase).
0.07% HA solutions were prepared as follows: […] and […] pH 5.5 phosphate buffer (1 M) were combined in a scintillation vial. […] The solutions were allowed to dissolve overnight at 37° C. The pH's were checked and adjusted to 6.0. The viscosity of the solutions was analyzed by measuring the run time through an Ubbelohde PC1 viscometer. 50 μl of hyaluronidase (4.2 mg in 620 ul of water) was added per vial (final concentration approximately 6 units/ml) and incubated overnight with shaking. A viscometer reading was recorded for each solution after overnight incubation.

[1] = 10 mg/ml, without enzyme (Example 4)

Row | Compound | Time (minutes) for sample to run through viscometer (0 mg/ml (so in the source), with enzyme (Example 4)) [min] | Degradation of HA (% viscosity relative to control t = 0) (10 mg/ml, with hyaluronidase (Example 2)) [%] | Time (minutes) for sample to run through viscometer [1] [min] | Effect on hyaluronidase (viscosity of HA solution versus enzyme control) (Example 2, concentrations of Table 2) | Effect on hyaluronidase (viscosity of HA solution versus enzyme control) (Example 4, 10 mg/ml) | Time (minutes) for sample to run through viscometer (10 mg/ml, with enzyme (Example 4)) [min]
1 | CC(O)CO (centres unmarked) [Propylene glycol] | 5 | 65 | 5.85 | inhibit the action of hyaluronidase | inhibit the action of hyaluronidase | 
2 | SPAN 80 |  |  | 5.5 |  | inhibit the action of hyaluronidase | 4.36
